“Also recorded” adds a separate entry of the source.
How the values were obtained:
ferritin = assay: Western blot of ferritin in cerebellar lysates; format: in vivo; conditions: cerebellar lysates of IRP2−/− mice, Tempo1 diet vs control diet
Description: (§1) Diet: The mice were weaned 3-4 weeks after their birth. Immediately after weaning, mice were maintained on either a Tempo1-supplemented or control diet. In the Tempo1-supplemented diet, powdered Tempo1 was uniformly mixed with bacon-flavored mouse chow by a “cold press” technique (Bio-Serv, Frenchtown, N.J., USA) at a concentration of 10 mg/g of food. Bacon-flavored chow without Tempo1 was used as the control diet.
Tissue and lysate preparation: Animals were euthanized and tissues were frozen in liquid nitrogen immediately after harvesting, and stored at −80° C. under argon. Experiments were performed on tissues that were pulverized in liquid N2-cooled mortars in an anaerobic chamber, and then lysed in lysis buffer that was deaerated by cyclic freezethaw and air-removal with argon. Nuclei and debris were removed by centrifugation. Preparations of lysates for assays of IRP1 activity, western blotting, carbonyl assay and protein analysis were performed anaerobically. […]
Cerebellar lysates from wild-type and IRP2−/− mice that were maintained on a control diet or on a Tempo1-supplemented diet were analyzed for ferritin and actin expression. […] Quantification was performed with the NIH Image program. Error bars represent the standard deviation calculated from the results of three different sets of animals. […]

purified holo-IRP1 = biological target: T1, purified holo-IRP1 (Homo sapiens, UniProt P21399); assay: Aconitase activity of purified holo-IRP1, coupled solution assay; format: biochemical; conditions: purified protein, room air up to 2 h or 3 h at 37° C., vs control samples
T1 sequence (P21399 1-889): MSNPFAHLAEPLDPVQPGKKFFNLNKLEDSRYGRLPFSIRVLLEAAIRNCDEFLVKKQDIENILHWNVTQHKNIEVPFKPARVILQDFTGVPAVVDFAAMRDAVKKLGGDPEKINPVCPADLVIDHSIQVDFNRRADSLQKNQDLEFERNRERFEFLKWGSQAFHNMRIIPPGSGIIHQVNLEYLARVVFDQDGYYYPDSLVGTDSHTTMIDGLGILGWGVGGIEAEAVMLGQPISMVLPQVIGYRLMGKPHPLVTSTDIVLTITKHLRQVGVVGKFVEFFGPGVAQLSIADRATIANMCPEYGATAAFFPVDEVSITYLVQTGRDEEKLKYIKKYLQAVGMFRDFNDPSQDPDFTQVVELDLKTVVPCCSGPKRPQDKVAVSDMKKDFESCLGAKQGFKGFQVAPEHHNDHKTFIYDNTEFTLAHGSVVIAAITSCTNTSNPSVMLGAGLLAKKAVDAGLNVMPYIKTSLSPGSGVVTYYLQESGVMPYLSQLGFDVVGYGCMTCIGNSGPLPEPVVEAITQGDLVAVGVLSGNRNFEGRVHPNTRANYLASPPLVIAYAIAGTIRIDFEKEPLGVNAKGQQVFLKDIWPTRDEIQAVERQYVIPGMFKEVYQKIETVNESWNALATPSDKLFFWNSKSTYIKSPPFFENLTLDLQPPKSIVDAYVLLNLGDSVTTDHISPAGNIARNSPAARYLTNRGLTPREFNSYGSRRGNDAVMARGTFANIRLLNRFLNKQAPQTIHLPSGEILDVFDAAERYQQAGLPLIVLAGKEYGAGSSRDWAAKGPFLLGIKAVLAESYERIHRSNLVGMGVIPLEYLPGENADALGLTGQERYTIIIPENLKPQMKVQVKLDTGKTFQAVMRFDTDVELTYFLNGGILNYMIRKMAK

IRP2−/− mice = assay: Observation of other signs of neurodegeneration in IRP2−/− mice; format: in vivo; conditions: IRP2−/− mice supplemented with Tempo1
Description: Background on Experimental Model: In the following examples, IRP2−/− mice are used to model neurodegerative disease. The neurodegeneration of IRP2−/− animals is characterized by progressive loss of motor capabilities, for example as measured in mice by performance on hang-tests, rotarod rotating drum treadmill testing, balance beams, climbing pole tests, allelerods, footprints, decreased grooming activities and gait abnormalities in adult animals. The neurodegeneration of IRP2−/− animals progresses slowly as animals age.
as §1

CC1(C)CC(O)CC(C)(C)N1[O] [Tempo1]
ferritin levels (ferritin): reduced | loss of aconitase activity (purified holo-IRP1): comparable losses; also recorded: did not enhance | other signs of neurodegeneration (movement disorders, tremor, abnormalities of gait and grooming) (IRP2−/− mice): did not develop

— US20100179188A1, “NITROXIDE RADICAL AS TREATMENT FOR NEURODEGENERATION” (Office of Technology Transfer, NIH, priority 2007, published 2010)
